{
  "source": "patent US20060229255A1",
  "about": "“Identification of n-alkylglycine trimers for induction of apoptosis” (priority 2003, published 2006)",
  "system": "HT29 cells",
  "assay": "Annexin V-FITC detection assay",
  "format": "cell-based, human",
  "settings": "HT29, 35 μM, 40 h treatment",
  "method": "Annexin V assay. Treated cells were harvested with EDTA 0.02% in Hank's Balanced Salt Solution (HBSS), washed in HBSS then in PBS (phosphate buffered saline) containing 1% BSA (Bovine serum albumine) and finally resuspended in Annexin V incubation buffer (10 mM HEPES 7.4; 140 mM NaCl; 2.5 mM CaCl2) containing 1% BSA. 10^5 cells were incubated with 5 μl Annexin-V-FITC (Bender MedSystems) for 1 h at room temperature and in the dark. Dead cells were stained with Propidium Iodide (PI) at 2 μg/ml. The analysis was immediately performed by flow cytometry.\nFIG. 5. Detection of early apoptosis. Annexin V assay after 40 h of treatment with DMSO (right panel), N13-13-10C, 35 µM (central panel), or Taxol, 11 nM (left panel). HT29 treated cells were stained with Annexin V-FITC and PI and subjected to flow cytometry. Fluorescence dot blots of annexin V positive (vertical axis) and PI positive (horizontal axis, logarithmic values) cells are shown. Cell distribution expressed as percentage of the population is indicated: early apoptotic cells in quadrant 1, Q1 (AnV+/IP−); dead cells in Q2 (AnV+/IP+); living cells in Q3 (AnV−/IP−); necrotic cells in Q4 (AnV−/IP+).",
  "data": [
    {"smiles": "COc1ccc(CCNCC(=O)N(CCc2ccc(OC)cc2)CC(=O)N(CCc2ccccc2)CC(N)=O)cc1", "note": "[N13-13-10C]", "values": [
      {"measurement": "Early apoptotic cells (IP negative, Annexin V positive)", "result": 14, "unit": "%"},
      {"measurement": "Increase of early apoptotic cells with respect to control cells", "result": 3.5, "unit": "fold"}
    ]}
  ]
}
